In US20260132129A1 (Genesis Therapeutics, Inc., priority 2022, published 2026):

Molecular target: T1, PI3Kα H1047R (T47D cells) (Homo sapiens, UniProt P42336, H1047R)
T1 construct: endogenous in cells; host or cells: T47D cells
Experiment: PI3Kα cellular assay: pAKT HTRF in T47D cells after EGF stimulation
Format: cell-based
Conditions: for IC50: T47D cells (PI3Kα H1047R), pAKT S473 HTRF, EGF stimulation
Procedure, shortened: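 T47D cells (PIK3CA H1047R) serum-starved 16 h, then treated 1 h at 37 °C with compound (10,000 nM top, 3-fold steps to 0.5 nM). After 10 min stimulation with 20 ng/mL EGF, cells were lysed and pAKT measured by HTRF.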

T1 sequence (P42336 whole entry H1047R): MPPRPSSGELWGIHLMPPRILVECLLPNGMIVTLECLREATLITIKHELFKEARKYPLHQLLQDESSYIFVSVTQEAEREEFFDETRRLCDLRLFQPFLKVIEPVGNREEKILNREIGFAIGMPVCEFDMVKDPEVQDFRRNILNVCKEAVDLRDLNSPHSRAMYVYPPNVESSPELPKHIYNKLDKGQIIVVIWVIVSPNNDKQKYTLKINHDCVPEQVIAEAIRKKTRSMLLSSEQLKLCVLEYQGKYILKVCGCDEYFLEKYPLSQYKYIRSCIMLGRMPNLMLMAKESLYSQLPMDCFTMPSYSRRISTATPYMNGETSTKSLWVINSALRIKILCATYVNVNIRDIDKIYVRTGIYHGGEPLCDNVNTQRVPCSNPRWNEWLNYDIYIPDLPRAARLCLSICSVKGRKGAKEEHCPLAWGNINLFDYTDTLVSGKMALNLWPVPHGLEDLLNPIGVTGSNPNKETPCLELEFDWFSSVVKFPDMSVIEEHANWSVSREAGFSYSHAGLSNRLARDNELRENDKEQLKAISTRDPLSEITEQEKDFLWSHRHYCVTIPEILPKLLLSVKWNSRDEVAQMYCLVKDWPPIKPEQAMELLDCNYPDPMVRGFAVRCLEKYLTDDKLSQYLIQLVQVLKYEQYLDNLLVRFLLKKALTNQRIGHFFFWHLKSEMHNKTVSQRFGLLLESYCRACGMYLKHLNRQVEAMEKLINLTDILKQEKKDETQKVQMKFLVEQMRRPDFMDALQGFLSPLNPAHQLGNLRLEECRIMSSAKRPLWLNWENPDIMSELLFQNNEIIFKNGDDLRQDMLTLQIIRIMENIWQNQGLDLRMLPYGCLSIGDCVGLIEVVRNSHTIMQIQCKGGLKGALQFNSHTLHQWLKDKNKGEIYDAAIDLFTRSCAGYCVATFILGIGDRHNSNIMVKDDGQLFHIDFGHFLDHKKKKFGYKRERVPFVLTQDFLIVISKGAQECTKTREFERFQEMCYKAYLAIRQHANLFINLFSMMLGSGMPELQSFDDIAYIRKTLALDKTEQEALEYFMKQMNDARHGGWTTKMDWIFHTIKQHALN
T1 sequence (P27986 whole entry partner): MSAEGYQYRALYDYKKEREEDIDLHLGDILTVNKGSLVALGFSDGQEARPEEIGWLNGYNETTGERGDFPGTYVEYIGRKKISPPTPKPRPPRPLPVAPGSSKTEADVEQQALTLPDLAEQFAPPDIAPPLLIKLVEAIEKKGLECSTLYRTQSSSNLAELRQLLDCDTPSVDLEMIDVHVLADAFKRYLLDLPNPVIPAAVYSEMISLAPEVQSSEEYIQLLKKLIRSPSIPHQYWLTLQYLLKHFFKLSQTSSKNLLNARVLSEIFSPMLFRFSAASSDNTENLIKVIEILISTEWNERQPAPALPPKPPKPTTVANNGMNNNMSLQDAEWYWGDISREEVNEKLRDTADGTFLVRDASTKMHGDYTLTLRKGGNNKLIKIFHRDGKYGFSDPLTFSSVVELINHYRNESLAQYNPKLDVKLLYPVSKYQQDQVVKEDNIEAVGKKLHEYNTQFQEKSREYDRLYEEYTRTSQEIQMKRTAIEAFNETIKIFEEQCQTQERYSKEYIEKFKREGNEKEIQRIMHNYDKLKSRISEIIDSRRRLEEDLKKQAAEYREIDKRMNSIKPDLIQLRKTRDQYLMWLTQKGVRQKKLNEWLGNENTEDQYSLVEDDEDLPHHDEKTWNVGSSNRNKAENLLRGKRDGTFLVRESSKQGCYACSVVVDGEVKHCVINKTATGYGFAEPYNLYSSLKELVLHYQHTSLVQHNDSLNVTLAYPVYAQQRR

| SMILES | T47D pAKT S473 HTRF IC50 (H1047R): T47D (H1047R) selectivity over SKBR3 (WT) | IC50 [nM] |
| --- | --- | --- |
| Cc1cc([C@@H](C)Nc2ccccc2C(=O)O)c2nc([C@H]3CCCC(CC(F)F)C3)c(C)c(=O)n2c1 (some centres unmarked) [Compound 1329] | A (A denotes >20-fold) | – |
| Cc1cc([C@H](C)Nc2ccccc2C(=O)O)c2nc([C@H]3CCCC(CC(F)F)C3)c(C)c(=O)n2c1 (some centres unmarked) [Compound 1331] | C (C denotes ≤5-fold) | – |
| CC(=O)N1CCC(Cc2ccc(-c3nc4c([C@H](C)Nc5ccccc5C(=O)O)cc(C)cn4c(=O)c3C)cc2F)CC1 [Compound 1334] | B (B denotes 20-fold≥value>5-fold) | – |
| Cc1cc(C(C)Nc2ccccc2C(=O)O)c2nc(-c3cnc(C4CCN(C(=O)C5CC5)CC4)nc3)c(C)c(=O)n2c1 (centres unmarked) [Compound 1336] | C (C denotes ≤5-fold) | – |
| Cc1cc(C(C)Oc2ccccc2C(=O)O)c2nc(-c3cccc(F)c3)c(C)c(=O)n2c1 (centres unmarked) [Compound 1337] | C (C denotes ≤5-fold) | – |
| Cc1cc([C@@H](C)Nc2ccccc2C(=O)O)c2nc(-c3ccc(C4CCCC(C)C4)cc3)c(C)c(=O)n2c1 (some centres unmarked) [Compound 1338] | C (C denotes ≤5-fold) | – |
| Cc1cc([C@H](C)Nc2ccccc2C(=O)O)c2nc(-c3ccc(C4CCC(C)CC4)cc3)cc(=O)n2c1 (some centres unmarked) [Compound 1341] | B (B denotes 20-fold≥value>5-fold) | – |
| Cc1cc([C@@H](C)Nc2ccccc2C(=O)O)c2nc(-c3ccc(C4CN(C)C4)nc3)c(C)c(=O)n2c1 [Compound 1342] | C (C denotes ≤5-fold) | – |
| Cc1cc([C@H](C)Nc2ccccc2C(=O)O)c2nc(-c3ccc(C4CN(C)C4)nc3)c(C)c(=O)n2c1 [Compound 1343] | C (C denotes ≤5-fold) | – |
| Cc1cc([C@@H](C)Nc2ccccc2S(N)(=O)=O)c2nc(-c3ccc(C4CCNCC4)nc3)c(C)c(=O)n2c1 [Compound 1344] | B (B denotes 20-fold≥value>5-fold) | – |
| Cc1cc([C@H](C)Nc2ccccc2S(N)(=O)=O)c2nc(-c3ccc(C4CCNCC4)nc3)c(C)c(=O)n2c1 [Compound 1345] | C (C denotes ≤5-fold) | – |
| Cc1cc([C@@H](C)Nc2ccccc2C(=O)NS(=O)(=O)N(C)C)c2nc(-c3cccc(F)c3)c(C)c(=O)n2c1 [Compound 1346] | C (C denotes ≤5-fold) | – |
| Cc1cc([C@H](C)Nc2ccccc2C(=O)NS(=O)(=O)N(C)C)c2nc(-c3cccc(F)c3)c(C)c(=O)n2c1 [Compound 1347] | B (B denotes 20-fold≥value>5-fold) | – |
| Cc1cn2c(=O)c(C)c(-c3cccc(F)c3)nc2c(C(C)Nc2ccccc2C(=O)O)c1C (centres unmarked) [Compound 1348] | A (A denotes >20-fold) | < 100 |
| Cc1cc([C@H](C)Nc2ccccc2C(=O)NS(C)(=O)=O)c2cc(-c3cccc(F)c3)c(C)c(=O)n2c1 [Compound 1351] | C (C denotes ≤5-fold) | – |
| Cc1cc(C(C)Nc2ccccc2C(=O)O)c2nc(C3CCCOC3)c(C#N)c(=O)n2c1 (centres unmarked) [Compound 1353] | A (A denotes >20-fold) | 100 to 500 |
| Cc1cc([C@@H](C)Nc2ccccc2S(C)(=O)=O)c2nc(-c3ccc(C4CCC(C)CC4)cc3)c(C)c(=O)n2c1 (some centres unmarked) [Compound 1354] | C (C denotes ≤5-fold) | – |
| Cc1cc(C(C)Nc2cccc3onc(O)c23)c2nc(-c3cccc(F)c3)c(C)c(=O)n2c1 (centres unmarked) [Compound 1356] | A (A denotes >20-fold) | – |
| Cc1ccc(N[C@H](C)c2cc(C)cn3c(=O)c(C)c(-c4cccc(F)c4)nc23)c(C(=O)O)c1 [Compound 1357] | C (C denotes ≤5-fold) | – |

| SMILES | T47D pAKT S473 HTRF IC50 (H1047R): T47D (H1047R) selectivity over SKBR3 (WT) | IC50 [nM] |
| --- | --- | --- |
| Cc1cc([C@@H](C)Nc2ccccc2C(=O)O)c2cc([C@@H]3CCCOC3)c(C#N)c(=O)n2c1 [Compound 1361] | A (A denotes >20-fold) | – |
| Cc1cc([C@H](C)Nc2ccccc2C(=O)O)c2nc(C3CCCOC3)c(C#N)c(=O)n2c1 (some centres unmarked) [Compound 1364] | C (C denotes ≤5-fold) | > 2000 |
| Cc1cc(C(C)Nc2cccc3onc(O)c23)c2nc(-c3cccnc3)c(C)c(=O)n2c1 (centres unmarked) [Compound 1365, 9-(1-((3-hydroxybenzo[d]isoxazol-4-yl)amino)ethyl)-3,7-dimethyl-2-(pyridin-3-yl)-4H-pyrido[1,2-a]pyrimidin-4-one] | A (A denotes >20-fold) | 100 to 500 |
| Cc1cc(C(C)Nc2ccccc2-c2cc(O)no2)c2nc(-c3cccc(F)c3)c(C)c(=O)n2c1 (centres unmarked) [Compound 1367, 2-(3-fluorophenyl)-9-(1-((2-(3-hydroxyisoxazol-5-yl)phenyl)amino)ethyl)-3,7-dimethyl-4H-pyrido[1,2-a]pyrimidin-4-one] | A (A denotes >20-fold) | 100 to 500 |
| Cc1cc([C@@H](C)Nc2ccccc2-c2cc(O)no2)c2nc(-c3cccc(F)c3)c(C)c(=O)n2c1 [Compound 1368, (R)-2-(3-fluorophenyl)-9-(1-((2-(3-hydroxyisoxazol-5-yl)phenyl)amino)ethyl)-3,7-dimethyl-4H-pyrido[1,2-a]pyrimidin-4-one] | C (C denotes ≤5-fold) | > 2000 |
| Cc1cc([C@@H](C)Oc2ccccc2C(=O)O)c2nc(-c3cccc(F)c3)c(C)c(=O)n2c1 [Compound 1372] | C (C denotes ≤5-fold) | > 2000 |
| Cc1cc([C@H](C)Oc2ccccc2C(=O)O)c2nc(-c3cccc(F)c3)c(C)c(=O)n2c1 [Compound 1373] | C (C denotes ≤5-fold) | > 2000 |
| Cc1cc(C(C)Nc2cccc3onc(O)c23)c2nc(-c3cccc(F)c3)c(C)c(=O)n2c1 (centres unmarked) [Compound 1375] | C (C denotes ≤5-fold) | > 2000 |
| Cc1cc(C(C)Oc2ccccc2C2(O)CS(=O)(=O)C2)c2nc(-c3cccc(F)c3)c(C)c(=O)n2c1 (centres unmarked) [Compound 1382] | A (A denotes >20-fold) | – |
| Cc1cc(C(C)Nc2ccccc2C2(O)COC2)c2nc(-c3cccc(F)c3)c(C)c(=O)n2c1 (centres unmarked) [Compound 1389, 2-(3-fluorophenyl)-9-(1-((2-(3-hydroxyoxetan-3-yl)phenyl)amino)ethyl)-3,7-dimethyl-4H-pyrido[1,2-a]pyrimidin-4-one] | B (B denotes 20-fold≥value>5-fold) | 500 to 2000 |
| Cc1cc([C@@H](C)Oc2ccccc2C2(O)CS(=O)(=O)C2)c2nc(-c3cccc(F)c3)c(C)c(=O)n2c1 [Compound 1392] | C (C denotes ≤5-fold) | > 2000 |
| Cc1cc([C@@H](C)Nc2ccccc2C2(O)COC2)c2nc(-c3cccc(F)c3)c(C)c(=O)n2c1 [Compound 1399] | A (A denotes >20-fold) | 100 to 500 |
| Cc1cc([C@H](C)Nc2cccc3onc(O)c23)c2nc(-c3ccccc3)c(C)c(=O)n2c1 [Compound 1403] | C (C denotes ≤5-fold) | – |
| Cc1cc([C@H](C)Nc2ccccc2-c2ccnnc2)c2cc([C@H]3CCCOC3)c(C)c(=O)n2c1 [Compound 1406] | A (A denotes >20-fold) | – |
| Cc1cc([C@H](C)Nc2ccccc2-c2ccnnc2)c2nc([C@@H]3CCCOC3)c(C)c(=O)n2c1 [Compound 1407] | A (A denotes >20-fold) | < 100 |
| Cc1cc(C(C)Nc2ccccc2C(=O)O)c2nc(-c3ccncc3)c(C)c(=O)n2c1 (centres unmarked) [Compound 1408, 2-((1-(3,7-dimethyl-4-oxo-2-(pyridin-4-yl)-4H-pyrido[1,2-a]pyrimidin-9-yl)ethyl)amino)benzoic acid] | A (A denotes >20-fold) | < 100 |
| Cc1cc(C(C)Nc2ccsc2-c2ccnnc2)c2nc(N3Cc4ccccc4C3)c(C)c(=O)n2c1 (centres unmarked) [Compound 1409, 2-(isoindolin-2-yl)-3,7-dimethyl-9-(1-((2-(pyridazin-4-yl)thiophen-3-yl)amino)ethyl)-4H-pyrido[1,2-a]pyrimidin-4-one] | A (A denotes >20-fold) | 100 to 500 |
| Cc1cc(C(C)Nc2ccccc2C(=O)O)c2nc(-c3cnc4c(c3)c(C)c(C)n4C)c(C)c(=O)n2c1 (centres unmarked) [Compound 1410, 2-((1-(3,7-dimethyl-4-oxo-2-(1,2,3-trimethyl-1H-pyrrolo[2,3-b]pyridin-5-yl)-4H-pyrido[1,2-a]pyrimidin-9-yl)ethyl)amino)benzoic acid] | A (A denotes >20-fold) | < 100 |
